The source made the active and inactive calls. The calls are words filed in the database; no cut-off is given here.
Assays:
[1] = system: P338; assay: Antitumor activity against P-338 leukemia in mice.; type: functional, Mus musculus
[2] = system: L1210 leukemia (mouse); assay: Compound was evaluated for antitumor activity against L1210 leukemia in mice at the dose of 40 mg/kg; T/C=Survival time of treated/control animals*100
[3] = system: P338; assay: Compound was evaluated for antitumor activity against P-338 leukemia in mice. toxic dose range of the compound; Highest dose administered; type: functional, Mus musculus
[4] = system: L1210 leukemia (mouse); assay: Antitumor activity against L1210 leukemia in mice
[5] = system: L1210 leukemia (mouse); assay: Compound was evaluated for antitumor activity against L1210 leukemia in mice at the dose of 10 mg/kg; T/C=Survival time of treated/control animals*100
[6] = system: L1210 leukemia (mouse); assay: Compound was evaluated for antitumor activity against L1210 leukemia in mice, active dose range of the compound; Lowest dose administered, dose range was 2.5-20 mg/kg
[7] = system: P338; assay: Compound was evaluated for antitumor activity against P-338 leukemia in mice, active dose range of the compound; Lowest dose administered, dose range was 7.5-15.5 mg/kg; type: functional, Mus musculus
[8] = system: P338; assay: Compound was evaluated for antitumor activity against P-338 leukemia in mice at the dose of 3.1 mg/kg; T/C=Survival time of treated/control animals*100; type: functional, Mus musculus
[9] = system: P338; assay: Compound was evaluated for antitumor activity against P-338 leukemia in mice, toxic dose range of the compound; type: functional, Mus musculus
[10] = system: P338; assay: Compound was evaluated for antitumor activity against P-338 leukemia in mice, active dose range of the compound; Lowest dose administered, dose range was 0.4-3.1 mg/kg; type: functional, Mus musculus
[11] = system: P338; assay: Compound was evaluated for antitumor activity against P-338 leukemia in mice, active dose range of the compound; Lowest dose administered, dose range was 1.25-2.5 mg/kg; type: functional, Mus musculus
[12] = system: L1210 leukemia (mouse); assay: Compound was evaluated for antitumor activity against L1210 leukemia in mice at the dose of 2.5 mg/kg; T/C=Survival time of treated/control animals*100
[13] = system: P338; assay: Compound was evaluated for antitumor activity against P-338 leukemia in mice at the dose of 25 mg/kg; T/C=Survival time of treated/control animals*100; type: functional, Mus musculus
[14] = system: P338; assay: Compound was evaluated for antitumor activity against P-338 leukemia in mice, active dose range of the compound; Lowest dose administered, dose range was 3.12-25 mg/kg; type: functional, Mus musculus
[15] = system: P338; assay: Compound was evaluated for antitumor activity against P-338 leukemia in mice; T/C=Survival time of treated/control animals*100; Inactive; type: functional; settings: Mus musculus
[16] = system: P338; assay: Compound was evaluated for antitumor activity against P-338 leukemia in mice at the dose of 1.6 mg/kg; T/C=Survival time of treated/control animals*100; type: functional, Mus musculus
[17] = system: P338; assay: Compound was evaluated for antitumor activity against P-338 leukemia in mice, active dose range of the compound; Lowest dose administered, dose range was 0.4-1.6 mg/kg; type: functional, Mus musculus
[18] = system: P338; assay: Compound was evaluated for antitumor activity against P-338 leukemia in mice; T/C=Survival time of treated/control animals *100; Inactive; type: functional; settings: Mus musculus
[19] = system: P338; assay: Compound was evaluated for antitumor activity against P-338 leukemia in mice at the dose of 20 mg/kg; T/C=Survival time of treated/control animals*100; type: functional, Mus musculus
[20] = system: P338; assay: Compound was evaluated for antitumor activity against P-338 leukemia in mice, active dose range of the compound; Lowest dose to highest dose administered, dose range was 2.5-40 mg/kg; type: functional, Mus musculus
[21] = system: P338; assay: Compound was evaluated for antitumor activity against P-338 leukemia in mice, active dose range of the compound; Lowest dose administered, dose range was 2.5-40 mg/kg; type: functional, Mus musculus
[22] = system: P338; assay: Compound was evaluated for antitumor activity against P-338 leukemia in mice, active dose range of the compound; Lowest dose administered, dose range was 4-16 mg/kg; type: functional, Mus musculus
[23] = system: P338; assay: Compound was evaluated for antitumor activity against P-338 leukemia in mice at the dose of 8 mg/kg; T/C=Survival time of treated/control animals*100; type: functional, Mus musculus
[24] = system: P338; assay: Compound was evaluated for antitumor activity against P-338 leukemia in mice at the dose of 16 mg/kg; T/C=Survival time of treated/control animals*100; type: functional, Mus musculus
[25] = system: P338; assay: Compound was evaluated for antitumor activity against P-338 leukemia in mice, active dose range of the compound; Lowest dose to highest dose administered, dose range was 2-32 mg/kg; type: functional, Mus musculus
[26] = system: P338; assay: Compound was evaluated for antitumor activity against P-338 leukemia in mice, active dose range of the compound; Lowest dose to highest dose administered, dose range was 5-40 mg/kg; type: functional, Mus musculus
[27] = system: L1210 leukemia (mouse); assay: Compound was evaluated for antitumor activity against L1210 leukemia in mice, active dose range of the compound; Lowest dose administered, dose range was 2.5-5 mg/kg
[28] = system: P338; assay: Compound was evaluated for antitumor activity against P-338 leukemia in mice at the dose of 4 mg/kg; T/C=Survival time of treated/control animals*100; type: functional, Mus musculus
[29] = system: P338; assay: Compound was evaluated for antitumor activity against P-338 leukemia in mice at the dose of 32 mg/kg; T/C=Survival time of treated/control animals*100; type: functional, Mus musculus
[30] = system: P338; assay: Compound was evaluated for antitumor activity against P-338 leukemia in mice.a ctive dose range was 8-32 mg/kg; type: functional, Mus musculus
[31] = system: P338; assay: Compound was evaluated for antitumor activity against P-338 leukemia in mice, active dose range of the compound; Lowest dose to highest dose administered, dose range was 7.5-60 mg/kg; type: functional, Mus musculus
[32] = system: P338; assay: Compound was evaluated for antitumor activity against P-338 leukemia in mice at the dose of 60 mg/kg; T/C=Survival time of treated/control animals*100; type: functional, Mus musculus
[33] = system: P338; assay: Compound was evaluated for antitumor activity against P-338 leukemia in mice at the dose of 2 mg/kg; T/C=Survival time of treated/control animals*100; type: functional, Mus musculus
[34] = system: P338; assay: Compound was evaluated for antitumor activity against P-338 leukemia in mice, active dose range of the compound; Lowest dose administered, dose range was 2.0-4.0 mg/kg; type: functional, Mus musculus

CC[C@@]1(O)C(=O)OCc2c1cc1n(c2=O)Cc2cc3c(N)c(OC)ccc3nc2-1
No. of cures [1]: 0
T/C [2]: 186%

CC[C@@]1(O)C(=O)OCc2c1cc1n(c2=O)Cc2cc3c([N+](=O)[O-])cccc3nc2-1 [RUBITECAN]
No. of cures [1]: 5
Toxic dose [3]: 40 mg/kg
KE (log cell kill) [4]: > 5.86
T/C [5]: 348%
Active dose range [6]: 2.5 mg/kg

CCC1(O)C(=O)OCc2c1cc1n(c2=O)Cc2cc3cc([N+](=O)[O-])ccc3nc2-1 (racemic)
No. of cures [1]: 1
Active dose range [7]: 7.5 mg/kg
KE (log cell kill) [4]: > 5.86

CC[C@@]1(O)C(=O)OCc2c1cc1n(c2=O)Cc2cc3cc(O)ccc3nc2-1 [HYDROXYCAMPTOTHECIN]
T/C [8]: 297%
No. of cures [1]: 0
Toxic dose [9]: 6.25 mg/kg
Active dose range [10]: 0.4 mg/kg

CCC1(O)C(=O)OCc2c1cc1n(c2=O)Cc2cc3cnccc3nc2-1 (stereo not drawn)
No. of cures [1]: 0
Active dose range [11]: 1.25 mg/kg
T/C [12]: 162%

CC[C@](O)(C(=O)[O-])c1cc2n(c(=O)c1CO)Cc1cc3ccccc3nc1-2.[Na+]
T/C [2]: 215%

CCC1(O)C(=O)OCc2c1cc1n(c2=O)Cc2cc3sccc3nc2-1 (racemic)
T/C [13]: 193%
No. of cures [1]: 0
Toxic dose [3]: 50 mg/kg
Active dose range [14]: 3.12 mg/kg

CC[C@@]1(O)C(=O)OCc2c1cc1n(c2=O)Cc2cc3cccc(N)c3nc2-1
T/C [15]: inactive

CC[C@@]1(O)C(=O)OCc2c1cc1n(c2=O)Cc2cc3cc(OC)ccc3nc2-1
T/C [16]: 167%
No. of cures [1]: 0
Active dose range [17]: 0.4 mg/kg

CCC1(O)C(=O)OCc2c1cc1n(c2=O)Cc2cc3cc(OC)c(OC)cc3nc2-1 (racemic)
Toxic dose [3]: >50 mg/kg
T/C [18]: inactive

CC[C@@]1(O)C(=O)OCc2c1cc1n(c2=O)Cc2cc3c([N+](=O)[O-])c(O)ccc3nc2-1
T/C [19]: 131%
No. of cures [1]: 0
Active dose range [20]: 2.5 mg/kg

CC[C@@]1(O)C(=O)OCc2c1cc1n(c2=O)Cc2cc3c([N+](=O)[O-])c(OC)ccc3nc2-1
No. of cures [1]: 0
Active dose range [20]: 2.5 mg/kg
T/C [2]: 160%

CC[C@@]1(O)C(=O)OCc2c1cc1n(c2=O)Cc2cc3cccc([N+](=O)[O-])c3nc2-1
No. of cures [1]: 0
Active dose range [21]: 2.5 mg/kg
T/C [2]: 151%

CCC1(O)C(=O)OCc2c1cc1n(c2=O)Cc2cc3cc(N)ccc3nc2-1 (racemic)
No. of cures [1]: 3
Toxic dose [3]: 32 mg/kg
Active dose range [22]: 4 mg/kg
T/C [23]: 329%
KE (log cell kill) [4]: > 5.86

CCN(CC)CCOc1ccc2nc3c(cc2c1)Cn1c-3cc2c(c1=O)COC(=O)[C@]2(O)CC.Cl
T/C [24]: 183%
No. of cures [1]: 0
Active dose range [25]: 2 mg/kg

CC[C@@]1(O)C(=O)OCc2c1cc1n(c2=O)Cc2cc3c(NC(C)=O)c(O)ccc3nc2-1
No. of cures [1]: 0
Active dose range [20]: 2.5 mg/kg
T/C [2]: 220%

CC[C@@]1(O)C(=O)OCc2c1cc1n(c2=O)Cc2cc3cc(OCC(=O)O)ccc3nc2-1
T/C [15]: inactive

CCC1(O)C(=O)OCc2c1cc1n(c2=O)Cc2cc3cc(NC(C)=O)ccc3nc2-1 (stereo not drawn)
No. of cures [1]: 1
Active dose range [26]: 5 mg/kg
KE (log cell kill) [4]: > 5.86
T/C [2]: 318%

CC[C@@]1(O)C(=O)OCc2c1cc1n(c2=O)Cc2cc3c(N)cccc3nc2-1 [9-AMINOCAMPTOTHECIN]
No. of cures [1]: 4
KE (log cell kill) [4]: > 5.86
T/C [12]: 348%
Active dose range [27]: 2.5 mg/kg

CC[C@@]1(O)C(=O)OCc2c1cc1n(c2=O)Cc2cc3ccccc3nc2-1 [CAMPTOTHECIN]
T/C [28]: 197%

CCC1(O)C(=O)OCc2c1cc1n(c2=O)Cc2cc3cccnc3nc2-1 (stereo not drawn)
T/C [29]: 175%
Active dose range [30]: 8 mg/kg
No. of cures [1]: 0

CCC1(O)C(=O)OCc2c1cc1n(c2=O)Cc2cc3ccc(O)cc3nc2-1 (racemic)
Active dose range [31]: 7.5 mg/kg
No. of cures [1]: 3
T/C [32]: 357%

CCC1(O)C(=O)OCc2c1cc1n(c2=O)Cc2cc3cc4c(cc3nc2-1)OCO4 (racemic)
T/C [33]: 325%
No. of cures [1]: 2
Active dose range [34]: 2 mg/kg
KE (log cell kill) [4]: > 5.97

From ChEMBL document CHEMBL1123368, “Plant antitumor agents. 23. Synthesis and antileukemic activity of camptothecin analogues” (1986)
